Experimental data taken from patent US20240024409A1, “N-f-MLF DERIVATIVES THAT INHIBIT FORMYL PEPTIDE RECEPTORS FOR THE TREATMENT OF DISEASE” (University of South Alabama, priority 2022, published 2024).

How the values were obtained:
[1] = tested on: Primary STAT3^mut bone marrow-derived mast cells (BMMC); test: BMMC degranulation (LAMP-1 on the plasma membrane by flow cytometry); format: cell-based, mice; settings: DNP-specific IgE then DNP; peptide added prior to DNP; varying concentrations
Description: Primary bone marrow-derived mast cells (BMMC) were cultured from STAT3^mut mice in RPMI-1640 Medium (Thermo Fisher Scientific) containing 10% fetal bovine serum (FBS), interleukin-3 (IL-3) and stem cell factor (SCF). To induce degranulation, BMMC were incubated with dinitrophenyl (DNP)-specific IgE followed by addition of DNP to crosslink IgE. To test effects of fMLFF and fMLYF, different concentrations were administered prior to the addition of DNP. Degranulation was measured by the amount of lysosomal-associated membrane protein 1 (LAMP-1) on the plasma membrane by flow cytometry.
Primary STAT3^mut BMMC were treated with varying concentrations of fMLFF and fMLYF (FIG. 3A and FIG. 3B). Data shown in FIG. 3B were summarized from 3 individual experiments; bars indicate means+SEM; **p<0.001; ****p<0.00001, 2-way ANOVA with Tukey's multiple comparison. Assays were performed independently with fMLFF and fMLYF; data shown are cumulative for experiments using fMLFF and fMLYF individually.

circulating IgE levels = test: IgE production in vivo (serum IgE by ELISA); parameters: species or system STAT3^mut mice; settings: 2.5 mg/kg once per week for 3 weeks
Description: Groups (n=4-6/group) were treated with fMLYF (2.5 mg/kg) or vehicle once per week for 3 weeks. Serum was collected to measure effects of peptide treatment on circulating IgE levels via ELISA (FIG. 1 and FIG. 5).

fMLFF
mast cell degranulation in vitro [1]: attenuated | IgE production in vivo (circulating IgE levels): attenuated
